pIC50: −log10 of the molar value. Calls of active or inactive are those of the source.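 How the source made its calls: active means compounds blocking the hormone-driven reporter light with IC50 under 35 µM; inactive means IC50 above 35 µM, or no measured IC50.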
target: Bursicon receptor (Drosophila rickets, LGR2); assay: LGR2 bursicon receptor antagonists, dose response, cell-based, HEK293, CRE-luciferase, beta-gal normalized, dry powder, set 4 (AID 743504); settings: bursicon-stimulated, antagonist

| SMILES | pIC50 | IC50 |
| --- | --- | --- |
| C[C@@H]1CCCCO[C@H](CN(C)C(=O)Nc2ccc(F)cc2)[C@H](C)CN([C@@H](C)CO)C(=O)c2cc(NC(=O)C3CCCCC3)ccc2O1 | – | > 35 µM (inactive) |
| C[C@H](CO)N1C[C@H](C)[C@H](CN(C)C(=O)Nc2ccc(F)cc2)OCCCC[C@H](C)Oc2ccc(NC(=O)C3CCCCC3)cc2C1=O | > 4.46 | – |

Other lines, results leading:

| pIC50 | IC50 | SMILES |
| --- | --- | --- |
| > 4.46 | – | C[C@H](CO)N1C[C@H](C)[C@H](CN(C)C(=O)Nc2ccccc2)OCCCC[C@H](C)Oc2ccc(NC(=O)C3CCCCC3)cc2C1=O |
| > 4.46 | – | COc1ccc(NC(=O)N(C)C[C@@H]2OCCCC[C@H](C)Oc3ccc(NC(=O)C4CCCCC4)cc3C(=O)N([C@H](C)CO)C[C@@H]2C)cc1 |
| > 4.46 | – | C[C@H](CO)N1C[C@H](C)[C@H](CN(C)C(=O)Nc2ccc3c(c2)OCO3)OCCCC[C@H](C)Oc2ccc(NC(=O)C3CCCCC3)cc2C1=O |
